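A five-concentration, 48-hour dose response in 96-well plates underlies each endpoint, interpolated linearly between surrounding concentrations. The concentration for 50% growth inhibition is given as GI50.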 Active and inactive are the calls of the source. Cut-off read from the data, not from the text of the source: active = GI50 up to about 1.1 µM and inactive = higher.
Assays:
Experiment in all cases: NCI anticancer screen, dose series, 48 h
[1] = system: MOLT-4
[2] = system: RXF 393
[3] = system: KM-20L2
[4] = system: A498
[5] = system: OVCAR-3
[6] = system: OVCAR-8
[7] = system: COLO 205
[8] = system: BT-549
[9] = system: SW-620
[10] = system: SK-MEL-28
[11] = system: HOP-62
[12] = system: HL-60
[13] = system: T47D
[14] = system: MDA-MB-231
[15] = system: M14
[16] = system: ACHN
[17] = system: SNB-75
[18] = system: 786-0
[19] = system: IGROV-1
[20] = system: HOP-92

| Compound | GI50 [1] | GI50 [2] | GI50 [3] | GI50 [4] | GI50 [5] | GI50 [6] | GI50 [7] | GI50 [8] | GI50 [9] | GI50 [10] | GI50 [11] | GI50 [12] | GI50 [13] | GI50 [14] | GI50 [15] | GI50 [16] | GI50 [17] | GI50 [18] | GI50 [19] | GI50 [20] |
| --- | --- | --- | --- | --- | --- | --- | --- | --- | --- | --- | --- | --- | --- | --- | --- | --- | --- | --- | --- | --- |
| O=C1C2=C(c3ccccc31)C(c1ccccc1)N1C(=O)CSC1=N2 (stereo unspecified) | 38.8 µM (inactive) | 25.6 µM (inactive) | 91 µM (inactive) | > 100 µM (inactive) | 51.2 µM (inactive) | > 71.8 µM (inactive) | > 56.4 µM (inactive) | 24.5 µM (inactive) | 50.8 µM (inactive) | 63.5 µM (inactive) | 83.8 µM (inactive) | 40.1 µM (inactive) | 29.6 µM (inactive) | 44.8 µM (inactive) | 49.4 µM (inactive) | > 79.4 µM (inactive) | 23.3 µM (inactive) | > 54.6 µM (inactive) | > 57.4 µM (inactive) | 32.6 µM (inactive) |
| O=c1[nH]c(=O)n(C2OC(COP(=O)(O)OP(=O)(O)OC3OC(CO)C(O)C(O)C3O)C(O)C2O)cc1F (stereo unspecified) | 0.0522 µM (active) | 0.0522 µM (active) | 0.101 µM (active) | 0.239 µM (active) | 0.552 µM (active) | 0.0966 µM (active) | 0.0984 µM (active) | – | 0.0504 µM (active) | 0.229 µM (active) | 0.302 µM (active) | 0.065 µM (active) | – | – | 0.234 µM (active) | 0.0217 µM (active) | 1.64 µM (inactive) | 0.0526 µM (active) | 0.125 µM (active) | 1.12 µM (active) |
| C/C(=N\NC(=S)NC(CCC(=O)O)C(=O)O)c1ccccn1 (stereo unspecified) | > 100 µM (inactive) | > 100 µM (inactive) | > 100 µM (inactive) | > 100 µM (inactive) | > 100 µM (inactive) | > 100 µM (inactive) | > 100 µM (inactive) | – | > 100 µM (inactive) | > 100 µM (inactive) | > 100 µM (inactive) | > 100 µM (inactive) | – | – | > 100 µM (inactive) | > 100 µM (inactive) | > 100 µM (inactive) | > 100 µM (inactive) | > 100 µM (inactive) | > 100 µM (inactive) |
| O=C(Nc1ccccc1)OCc1nc2c([nH]1)C(=O)C=CC2=O | 2.32 µM (inactive) | 10.8 µM (inactive) | 19.4 µM (inactive) | 16.2 µM (inactive) | 16.7 µM (inactive) | 15.5 µM (inactive) | 1.9 µM (inactive) | – | 2.62 µM (inactive) | 15.6 µM (inactive) | > 100 µM (inactive) | 3.29 µM (inactive) | – | – | 16 µM (inactive) | 12.6 µM (inactive) | 19.3 µM (inactive) | 18.3 µM (inactive) | 16.9 µM (inactive) | 24.6 µM (inactive) |
| CC(CCC=O)CCOCc1ccccc1 (stereo unspecified) | > 40.7 µM (inactive) | > 100 µM (inactive) | > 100 µM (inactive) | > 100 µM (inactive) | > 88.5 µM (inactive) | 98.4 µM (inactive) | > 100 µM (inactive) | > 100 µM (inactive) | > 80.7 µM (inactive) | > 100 µM (inactive) | > 100 µM (inactive) | 18.9 µM (inactive) | > 100 µM (inactive) | 56.6 µM (inactive) | > 100 µM (inactive) | > 100 µM (inactive) | > 100 µM (inactive) | > 100 µM (inactive) | > 100 µM (inactive) | > 100 µM (inactive) |
